Several values for one entry are separate records, joined by “and”; a condition that tells them apart may be missing. Identical values can stand only once.
The compounds below were run against T1, Diacylglycerol O-acyltransferase 2 (Homo sapiens, UniProt Q96PD7) (assay: DGAT2 enzymatic activity assay).
T1 sequence (Q96PD7 whole entry): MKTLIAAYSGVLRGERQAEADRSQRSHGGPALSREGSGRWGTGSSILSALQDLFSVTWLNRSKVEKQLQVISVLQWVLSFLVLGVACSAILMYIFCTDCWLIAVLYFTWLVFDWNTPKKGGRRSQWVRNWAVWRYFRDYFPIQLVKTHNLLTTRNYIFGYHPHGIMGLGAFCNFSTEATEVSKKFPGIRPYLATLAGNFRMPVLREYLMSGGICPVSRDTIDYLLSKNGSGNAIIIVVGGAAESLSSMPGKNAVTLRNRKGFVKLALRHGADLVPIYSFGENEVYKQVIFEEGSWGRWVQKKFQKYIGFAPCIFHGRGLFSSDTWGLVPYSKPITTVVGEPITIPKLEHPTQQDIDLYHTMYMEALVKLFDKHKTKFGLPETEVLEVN
Experimental: DGAT2 activity was determined by measuring the amount of enzymatic product 13Ci8-triolein (13C-l,2,3-Tri(cis-9-octadecenoyl)glycerol) using the membrane prep mentioned above. The assay was carried out in ABgene 384-well assay plates in a final volume of 25 pL at rt. The assay mixture contained the following: assay buffer (100 mM Tris Cl, pH 7.0, 20 mM MgCl2, 5% ethanol), 25 pM of di olein, 5 μM of 13C oleoyl-CoA and 8 ng/pL of DGAT2 membrane.

| IC50 | Compound |
| --- | --- |
| 9.7 nM | CCOc1cc(-n2c(=O)n([C@@H](C)C(C)(C)O)c3cc(C(=O)NC4(C)CCS(=O)(=O)CC4)ccc32)c(F)cn1 [WO2022076495, EXAMPLE 69a] |
| 211 nM | C[C@@H](n1c(=O)n(-c2cccc(OC(F)F)c2)c2ccc(C(=O)NC3(C)CCS(=O)(=O)CC3)cc21)C(C)(C)O [WO2022076495, EXAMPLE 67b] |
| 13 nM | CCOc1cc(-n2c(=O)n([C@@H](C)C(C)(C)O)c3cc(C(=O)NC4(C)CS(=O)(=O)C4)ccc32)c(F)cn1 [WO2022076495, EXAMPLE 78b] |
| 4.1 nM | C[C@H](n1c(=O)n(-c2cccc(OCC(F)F)c2)c2ccc(C(=O)NC3(C)CCS(=O)(=O)CC3)cc21)C(C)(C)O [WO2022076495, EXAMPLE 68a] |
| > 10000 nM | CC(C)n1c(=O)n(-c2cccc(OC(F)F)c2)c2cc(F)c(C(=O)NC(C)C(C)(C)O)cc21 (stereo unspecified) [WO2022076495, EXAMPLE 27] |
| 71 nM | C[C@H](n1c(=O)n(-c2cc(OC(F)(F)F)ccc2F)c2ccc(C(=O)NC3(C)CCS(=O)(=O)CC3)cc21)C(C)(C)O [WO2022076495, EXAMPLE 71a] |
| 31 nM | CC(C)n1c(=O)n(-c2cccc(OC(F)F)c2)c2cc(F)c(C(=O)N[C@H]3CCCC(F)(F)[C@H]3O)cc21 [WO2022076495, EXAMPLE 30] |
| 6.5 nM | C[C@@H](n1c(=O)n(-c2cc(OCC(F)F)ncc2F)c2cc(F)c(C(=O)NC3(C)CCS(=O)(=O)CC3)cc21)C(C)(C)O [WO2022076495, EXAMPLE 74b] |
| 3.3 nM | C[C@@H](n1c(=O)n(-c2cc(OCC(F)F)ccc2F)c2ccc(C(=O)NC3(C)CCS(=O)(=O)CC3)cc21)C(C)(C)O [WO2022076495, EXAMPLE 73b] |
| 3.9 nM | CCOc1cc(-n2c(=O)n([C@H](C)C(C)(C)O)c3cc(C(=O)NC4(C)CCS(=O)(=O)CC4)ccc32)c(F)cn1 [WO2022076495, EXAMPLE 69b] |
| 2.6 nM | C[C@H](n1c(=O)n(-c2cc(OCC(F)F)ccc2F)c2ccc(C(=O)NC3(C)CCS(=O)(=O)CC3)cc21)C(C)(C)O [WO2022076495, EXAMPLE 73a] |
| 80 nM | C[C@@H](n1c(=O)n(-c2cccc(OC(F)(F)C(F)F)c2)c2ccc(C(=O)NC3(C)CS(=O)(=O)C3)cc21)C(C)(C)O [WO2022076495, EXAMPLE 76a] |
| 81 nM | CC[C@@H](C)n1c(=O)n(-c2cccc(OC(F)F)c2)c2ccc(C(=O)NC3(C)CS(=O)(=O)C3)cc21 [WO2022076495, EXAMPLE 46a] |
| 66 nM and 54 nM | CC(C)n1c(=O)n(-c2cccc(OC(F)F)c2)c2cc(F)c(C(=O)NC3(C)CS(=O)(=O)C3)cc21 [WO2022076495, EXAMPLE 24] |
| 92 nM | CC[C@H](C)n1c(=O)n(-c2cccc(OC(F)F)c2)c2ccc(C(=O)NC3(C)CS(=O)(=O)C3)cc21 [WO2022076495, EXAMPLE 46b] |
| 6.7 nM | CC(C)n1c(=O)n(-c2cc(OCC(F)F)ncc2F)c2ccc(C(=O)NC3(C)CCS(=O)(=O)CC3)cc21 [WO2022076495, EXAMPLE 15] |
| 6.6 nM | C[C@@H](n1c(=O)n(-c2cc(OCC(F)F)ncc2F)c2ccc(C(=O)NC3(C)CCS(=O)(=O)CC3)cc21)C(C)(C)O [WO2022076495, EXAMPLE 72b] |
| 2.4 nM | C[C@@H](n1c(=O)n(-c2cc(OCC(F)F)ccc2F)c2cc(F)c(C(=O)NC3(C)CCS(=O)(=O)CC3)cc21)C(C)(C)O [WO2022076495, EXAMPLE 75b] |
| 0.7 nM | CC(n1c(=O)n(-c2cc(OC(F)F)ccc2F)c2ccc(C(=O)NC3(C)CS(=O)(=O)C3)cc21)C(C)(C)O (stereo unspecified) [WO2022076495, EXAMPLE 65] |
| 12 nM | C[C@H](C(F)F)n1c(=O)n(-c2cccc(OC(F)F)c2)c2ccc(C(=O)NC3(C)CCS(=O)(=O)CC3)cc21 [WO2022076495, EXAMPLE 45a] |
| 5.5 nM | CC(C)n1c(=O)n(-c2cc(OC(F)(F)C(F)F)ncc2F)c2cc(F)c(C(=O)NC3(C)CCS(=O)(=O)CC3)cc21 [WO2022076495, EXAMPLE 118] |
| 62 nM | CC(C)n1c(=O)n(-c2cccc(OC(F)F)c2)c2ncc(C(=O)NC3(C)CCS(=O)(=O)CC3)cc21 [WO2022076495, EXAMPLE 88] |
| 74 nM | CC(C)n1c(=O)n(-c2cc(OC(F)F)ccc2F)c2ncc(C(=O)NC3(C)CCS(=O)(=O)CC3)cc21 [WO2022076495, EXAMPLE 103] |
| 9.8 nM | C[C@@H](n1c(=O)n(-c2cccc(OC(F)(F)C(F)F)c2)c2cc(F)c(C(=O)NC3(C)CCS(=O)(=O)CC3)cc21)C(C)(C)O [WO2022076495, EXAMPLE 77b] |
| 71 nM | CC(C)n1c(=O)n(-c2cccc(OC(F)F)c2)c2cc(F)c(C(=O)N[C@H]3CCCC[C@@H]3O)cc21 [WO2022076495, EXAMPLE 35] |
| 5.4 nM | C[C@@H](n1c(=O)n(-c2cc(OC(F)(F)F)ccc2F)c2ccc(C(=O)NC3(C)CCS(=O)(=O)CC3)cc21)C(C)(C)O [WO2022076495, EXAMPLE 71b] |

| IC50 | Compound |
| --- | --- |
| 17 nM | C[C@@H](n1c(=O)n(-c2cc(OC(F)F)ccc2F)c2ccc(C(=O)NC3(C)CCS(=O)(=O)CC3)cc21)C(C)(C)O [WO2022076495, EXAMPLE 66b] |
| 779 nM | CC(C)n1c(=O)n(-c2cccc(OC(F)F)c2)c2cc(F)c(C(=O)N[C@H]3CCC[C@@H]3O)cc21 [WO2022076495, EXAMPLE 28] |
| > 9990 nM | CC(C)n1c(=O)n(-c2cccc(OC(F)F)c2)c2ccc(C(=O)NCC3(O)CCOC3)cc21 (stereo unspecified) [WO2022076495, EXAMPLE 62] |
| 88 nM and 122 nM | CC(C)n1c(=O)n(-c2cccc(OC(F)F)c2)c2ccc(C(=O)NC3(C)CS(=O)(=O)C3)cc21 [WO2022076495, EXAMPLE 12] |
| 123 nM | CCOc1cc(-n2c(=O)n([C@H](C)C(C)(C)O)c3cc(C(=O)NC4(C)CS(=O)(=O)C4)ccc32)c(F)cn1 [WO2022076495, EXAMPLE 78a] |
| 4.1 nM | CC(C)n1c(=O)n(-c2cc(OC(F)F)ncc2F)c2cc(F)c(C(=O)NC3(C)CCS(=O)(=O)CC3)cc21 [WO2022076495, EXAMPLE 115] |
| 1 nM | C[C@H](n1c(=O)n(-c2cc(OC(F)(F)F)ccc2F)c2cc(F)c(C(=O)NC3(C)CCS(=O)(=O)CC3)cc21)C(C)(C)O [WO2022076495, EXAMPLE 70a] |
| 1260 nM | CC(C)n1c(=O)n(-c2cccc(OC(F)F)c2)c2cc(F)c(C(=O)N[C@H]3CCOC[C@@H]3O)cc21 [WO2022076495, EXAMPLE 29] |
| 31 nM | CCOc1cc(-n2c(=O)n(C(C)C)c3cc(C(=O)NC4(C)CS(=O)(=O)C4)ccc32)c(F)cn1 [WO2022076495, EXAMPLE 16] |
| 37 nM | CC(C)(O)Cn1c(=O)n(-c2cccc(OC(F)F)c2)c2ccc(C(=O)NC3(C)CS(=O)(=O)C3)cc21 [WO2022076495, EXAMPLE 64] |
| 202 nM | CC1(NC(=O)c2cc3c(cc2F)n(-c2cccc(OC(F)F)c2)c(=O)n3CC(F)(F)F)CS(=O)(=O)C1 [WO2022076495, EXAMPLE 43] |
| 6.4 nM | C[C@H](n1c(=O)n(-c2cc(OCC(F)F)ncc2F)c2ccc(C(=O)NC3(C)CCS(=O)(=O)CC3)cc21)C(C)(C)O [WO2022076495, EXAMPLE 72a] |
| 1.5 nM | C[C@H](n1c(=O)n(-c2cc(OCC(F)F)ccc2F)c2cc(F)c(C(=O)NC3(C)CCS(=O)(=O)CC3)cc21)C(C)(C)O [WO2022076495, EXAMPLE 75a] |
| 16 nM | CC(C)n1c(=O)n(-c2cccc(OC(F)(F)C(F)(F)F)c2)c2ccc(C(=O)NC3(C)CS(=O)(=O)C3)cc21 [WO2022076495, EXAMPLE 7] |
| 1.6 nM | C[C@H](n1c(=O)n(-c2cccc(OC(F)F)c2)c2ccc(C(=O)NC3(C)CCS(=O)(=O)CC3)cc21)C(C)(C)O [WO2022076495, EXAMPLE 67a] |
| 101 nM | C[C@@H](C(F)F)n1c(=O)n(-c2cccc(OC(F)F)c2)c2ccc(C(=O)NC3(C)CCS(=O)(=O)CC3)cc21 [WO2022076495, EXAMPLE 45b] |
| 19 nM | CC1(NC(=O)c2cc3c(cc2F)n(-c2cccc(OC(F)F)c2)c(=O)n3C2CCOCC2)CS(=O)(=O)C1 [WO2022076495, EXAMPLE 36] |
| 6.1 nM | C[C@H](n1c(=O)n(-c2cc(OCC(F)F)ncc2F)c2cc(F)c(C(=O)NC3(C)CCS(=O)(=O)CC3)cc21)C(C)(C)O [WO2022076495, EXAMPLE 74a] |
| 1.8 nM | C[C@@H](n1c(=O)n(-c2cccc(OCC(F)F)c2)c2ccc(C(=O)NC3(C)CCS(=O)(=O)CC3)cc21)C(C)(C)O [WO2022076495, EXAMPLE 68b] |
| 5.6 nM | C[C@H](n1c(=O)n(-c2cccc(OC(F)(F)C(F)F)c2)c2cc(F)c(C(=O)NC3(C)CCS(=O)(=O)CC3)cc21)C(C)(C)O [WO2022076495, EXAMPLE 77a] |
| 1.1 nM | C[C@H](n1c(=O)n(-c2cc(OC(F)F)ccc2F)c2ccc(C(=O)NC3(C)CCS(=O)(=O)CC3)cc21)C(C)(C)O [WO2022076495, EXAMPLE 66a] |
| 7.9 nM | C[C@H](n1c(=O)n(-c2cccc(OC(F)(F)C(F)F)c2)c2ccc(C(=O)NC3(C)CS(=O)(=O)C3)cc21)C(C)(C)O [WO2022076495, EXAMPLE 76b] |
| > 9990 nM | CC1(NC(=O)c2ccc3c(c2)n(S(=O)(=O)c2ccccc2)c(=O)n3-c2cccc(OC(F)F)c2)CCS(=O)(=O)CC1 [WO2022076495, EXAMPLE 86] |
| 30 nM | C[C@@H](n1c(=O)n(-c2cc(OC(F)(F)F)ccc2F)c2cc(F)c(C(=O)NC3(C)CCS(=O)(=O)CC3)cc21)C(C)(C)O [WO2022076495, EXAMPLE 70b] |
| 106 nM | CC(C)n1c(=O)n(-c2cccc(OC(F)F)c2)c2cc(F)c(C(=O)N[C@@H]3CCCC[C@H]3O)cc21 [WO2022076495, EXAMPLE 31] |
